Ten compounds from ChEMBL document CHEMBL1201862, “PubChem BioAssay data set” (2004) can be followed below.

Experiment [1] deals with T1, Tyrosine-protein phosphatase non-receptor type 7 (Homo sapiens, UniProt P35236).
T1 sequence (P35236 whole entry): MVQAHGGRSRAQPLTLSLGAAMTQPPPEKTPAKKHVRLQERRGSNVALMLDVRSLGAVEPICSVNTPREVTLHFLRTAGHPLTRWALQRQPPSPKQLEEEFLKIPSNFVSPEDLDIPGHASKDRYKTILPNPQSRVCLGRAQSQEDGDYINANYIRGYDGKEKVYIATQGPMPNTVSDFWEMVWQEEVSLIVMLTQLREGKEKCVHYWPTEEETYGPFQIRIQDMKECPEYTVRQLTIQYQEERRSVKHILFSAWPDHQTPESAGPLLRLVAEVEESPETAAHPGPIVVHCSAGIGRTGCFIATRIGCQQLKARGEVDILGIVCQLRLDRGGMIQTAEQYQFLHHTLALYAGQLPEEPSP
Briefly: inhibitors of human HePTP phosphatase, […], biochemical, absorbance, leukemia target (AID 521). In kind it is functional.

Experiment [2] is described as follows: Dose-response inhibition of insulin secretion in a rat insulinoma line at 5 mM glucose (AID 1117331). In kind it is functional, cell-based. Conditions: INS-1E.
A short description of another experiment: cells. In kind it is functional, cell-based. Conditions: INS-1E.
The nature of experiment [3]: Single fluorophore orthopox expression reporter, late gene expression Measured in Cell-Based and Microorganism Combination System Using Plate Reader - 2142-08_Inhibitor_Dose_DryPowder_Activity. In kind it is functional.
The nature of experiment [4]: A549 cell cytotoxicity, dose response, CellTiter-Glo luminescence, dry powder, set 17 (AID 1117284). The experiment is classed as functional, cell-based.
Experiment [5] can be described thus: inhibitors of orthopox intermediate gene expression, dose response, cell-based, single fluorophore reporter, dry powder (AID 1117271). In kind it is functional.
Experiment [6] is described as follows: Orthopox viral replication plaque formation Measured in Cell-Based and Microorganism Combination System Using Imaging - 2142-05_Inhibitor_Dose_DryPowder_Activity. In kind it is functional.
Experiment [7] deals with Ubiquitin carboxyl-terminal hydrolase BAP1 (Homo sapiens, UniProt Q92560). The experiment in a line: BAP1 deubiquitinase inhibitors, dose response, biochemical (AID 714). In kind it is functional.
For experiment [8], the target named is T2, Voltage-gated N-type calcium channel alpha-1B subunit/Amyloid beta A4 precursor protein-binding family A member 1 (Homo sapiens, UniProt Q00975+Q02410). In kind it is protein assay.
The nature of experiment [9]: M. tuberculosis H37Rv growth inhibitors, H37Rv strain (AID 1626). In kind it is functional.
Experiment [10] deals with Luciferin 4-monooxygenase (Photinus pyralis, UniProt P08659). Briefly: firefly luciferase enzyme inhibitors, dose response, biochemical, luminescence (AID 1891).
A short description of experiment [11]: Luminescence Cell-Based Dose Confirmation HTS to Identify Inhibitors of Platelet Dense Granule Release. [Related pubchem assays: 1663 (Primary HTS), 1678 (Summary of Project)]. The experiment is classed as functional.
The target in experiment [12] is T2, Voltage-gated N-type calcium channel alpha-1B subunit/Amyloid beta A4 precursor protein-binding family A member 1. In kind it is protein assay. This is another data set of the same source.
Experiment [13] in a line: P. falciparum 3D7-ScDHODH growth inhibitors, dose response, SYBR Green, dry powder samples (AID 1159570).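 Further: parasite growth measured after 72 hours of compound exposure.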 The experiment is classed as functional, cell-based.
Experiment [14] is described as follows: P. falciparum Dd2 growth inhibitors, dose response, SYBR Green, dry powder samples, set 9 (AID 1159568). In kind it is functional, cell-based.
Experiment [15] in a line: P. falciparum Dd2 growth inhibitors, dose response, SYBR Green, cherry-picked samples (AID 1159567). The experiment is classed as functional, cell-based.
A short description of experiment [16]: P. falciparum Dd2 growth inhibitors, dose response, SYBR Green, dry powder samples (AID 1159566).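 Further: potency for growth inhibition with lower SYBR green DNA signal.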 In kind it is functional, cell-based.
The nature of experiment [17]: Plasmodium falciparum Dd2 Sybr green parasite growth Measured in Cell-Based and Microorganism Combination System Using Plate Reader - 2153-01_Inhibitor_Dose_DryPowder_Activity_Set3. The experiment is classed as functional.
The nature of experiment [18]: P. falciparum ATP4 D1247Y mutant growth inhibitors, dose response, NITD609-resistant line, SYBR Green, dry powder (AID 1159571).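 Further: parasites synchronized at ring stage by sorbitol before testing.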 The experiment is classed as functional, cell-based.
Experiment [19] in a line: half-maximal inhibitory concentration for glucagon-like peptide-1 release, STC-1 cell line, dose-response (AID 1117345). In kind it is functional, cell-based.
Experiment [20] in a line: Glucagon-like peptide 1 release potency, NCI-H716 cell line, dose-response, half-maximal inhibitory concentration (AID 1117344). The experiment is classed as functional, cell-based.
The subject of experiment [21] is BJ. The experiment in a line: cytotoxicity toward BJ-TERT fibroblasts, dose response, cell-based, RAS-independent, luminescence (AID 1933). The experiment is classed as functional. Conditions: Homo sapiens.
In experiment [22] the test system is BJ. The experiment in a line: cells. In kind it is functional, cell-based. The note with it: Homo sapiens.
Experiment [23] relates to BJ. Briefly: cytotoxicity toward BJ-TERT-LT-ST fibroblasts, dose response, cell-based, RAS-independent, luminescence (AID 1935).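 Further: BJ fibroblasts immortalized with TERT plus LT and ST oncogenes.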 The experiment is classed as functional. The note with it: Homo sapiens.
Experiment [24] is described as follows: cytotoxicity toward DRD oncogenic fibroblasts, dose response, cell-based, non-viral oncogenic, luminescence (AID 1934). The experiment is classed as functional. The note with it: Homo sapiens.
For experiment [25], the system named is BJ. The experiment in a line: cytotoxicity toward Ras-transformed BJeLR fibroblasts, dose response, cell-based, alamar blue fluorescence, cherrypicked samples (AID 2631).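 Further: confirmatory dose-response assay in RAS-dependent BJ fibroblasts engineered with TERT, LT and ST, with cytotoxicity read by fluorescence.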 Conditions: Homo sapiens. The experiment is classed as functional.
Experiment [26] can be described thus: HeLa 2N DNA content increase, dose response, cell-based, IC50 (AID 1117349). The experiment is classed as functional.
The nature of experiment [27]: Concentration-dependent survival of SW480 colon cancer line, luminescence detection with CellTiter-Glo, half-maximal inhibitory concentration (AID 1117338). In kind it is functional.
The nature of experiment [28]: RKO cell viability reduction, dose response, CellTiter-Glo luminescence (AID 1117322). The experiment is classed as functional.
Experiment [29] is described as follows: cytotoxicity toward HCT116 cells – cell-based, CellTiter-Glo luminescence, IC50, dose response (AID 1117332). The experiment is classed as functional. Conditions: HCT-116.
The nature of experiment [30]: SNU-C1 cell viability reduction, dose response, CellTiter-Glo luminescence (AID 1117323). The experiment is classed as functional, cell-based.
Experiment [31] is described as follows: cytotoxicity toward Colo320 cells – cell-based, CellTiter-Glo luminescence, IC50, dose response (AID 1117334). In kind it is functional. Conditions: COLO 320.
The nature of experiment [32]: HeLa 4N DNA content increase, dose response, cell-based, IC50 (AID 1117351). In kind it is functional.
A short description of experiment [33]: cytotoxicity toward HT-29 cells – cell-based, CellTiter-Glo luminescence, IC50, dose response (AID 1117330). The experiment is classed as functional.
The nature of experiment [34]: CellTiter-Glo luminescent dose response of DLD-1 viability loss (AID 1117352). The experiment is classed as functional.
Experiment [35] is described as follows: HCT116 cell viability decrease, GSK3B pretreatment – CellTiter-Glo, IC50, dose response (AID 1117339). Conditions: HCT-116. The experiment is classed as functional.
The target in experiment [36] is Sphingosine 1-phosphate receptor 2 (Homo sapiens, UniProt O95136). Briefly: Dose Response Cell Based Assay for Agonists of the S1P2 Receptor. [Related pubchem assays: 729, 736, 843 ]. In kind it is functional.
Experiment [37] addresses T3, Rac GTPase-activating protein 1 (Homo sapiens, UniProt Q9H0H5).
T3 sequence (Q9H0H5 whole entry): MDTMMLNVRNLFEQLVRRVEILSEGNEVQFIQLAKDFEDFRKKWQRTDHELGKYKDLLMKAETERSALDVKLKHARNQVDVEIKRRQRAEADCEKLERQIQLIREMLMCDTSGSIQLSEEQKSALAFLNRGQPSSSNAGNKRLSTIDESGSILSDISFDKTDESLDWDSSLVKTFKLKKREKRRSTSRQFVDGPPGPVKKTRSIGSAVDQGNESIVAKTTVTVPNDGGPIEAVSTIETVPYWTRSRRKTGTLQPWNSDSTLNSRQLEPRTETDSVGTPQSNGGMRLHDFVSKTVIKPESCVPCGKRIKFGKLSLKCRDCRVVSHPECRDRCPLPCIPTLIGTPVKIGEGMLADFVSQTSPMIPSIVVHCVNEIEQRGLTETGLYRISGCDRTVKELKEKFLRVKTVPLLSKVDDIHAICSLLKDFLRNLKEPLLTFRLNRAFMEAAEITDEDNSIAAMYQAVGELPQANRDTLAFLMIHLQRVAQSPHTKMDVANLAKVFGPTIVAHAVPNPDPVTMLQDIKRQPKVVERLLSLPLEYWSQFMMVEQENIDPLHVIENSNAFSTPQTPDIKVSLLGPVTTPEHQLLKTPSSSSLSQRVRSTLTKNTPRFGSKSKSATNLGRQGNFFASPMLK
Briefly: MgcRacGAP GTPase-activating activity inhibitors, confirmation, biochemical, ADP Hunter fluorescence, primary and confirmatory (AID 624330). The experiment is classed as functional.

The target in experiment [38] is Bifunctional protein GlmU (Mycobacterium tuberculosis, UniProt P9WMN3). Briefly: Inhibitors of Mycobacterial Glucosamine-1-phosphate acetyl transferase (GlmU). Secondary screen. Further details: species or system Mycobacterium tuberculosis H37Rv.
Experiment [39] has as its target T4, Low molecular weight phosphotyrosine protein phosphatase (Homo sapiens, UniProt P24666).
T4 sequence (P24666 whole entry): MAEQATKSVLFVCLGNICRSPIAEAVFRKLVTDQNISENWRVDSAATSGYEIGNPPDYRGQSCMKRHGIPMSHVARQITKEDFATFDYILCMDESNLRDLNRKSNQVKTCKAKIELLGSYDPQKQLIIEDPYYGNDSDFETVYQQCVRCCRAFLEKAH
Briefly: LMPTP phosphatase inhibitors, dose response, biochemical, OMFP substrate, fluorescence intensity, set 2 (AID 743307). In kind it is functional.

The target of experiment [40] is T4, Low molecular weight phosphotyrosine protein phosphatase. The experiment in a line: LMPTP phosphatase inhibitors, colorimetric pNPP readout, dose response, orthogonal assay, biochemical, absorbance, pNPP substrate, LMPTP-A isoform, set 2 (AID 743308). In kind it is functional.

The structures appear in SMILES notation. Activity calls are given as the source filed them.

T2 sequence (Q00975 whole entry): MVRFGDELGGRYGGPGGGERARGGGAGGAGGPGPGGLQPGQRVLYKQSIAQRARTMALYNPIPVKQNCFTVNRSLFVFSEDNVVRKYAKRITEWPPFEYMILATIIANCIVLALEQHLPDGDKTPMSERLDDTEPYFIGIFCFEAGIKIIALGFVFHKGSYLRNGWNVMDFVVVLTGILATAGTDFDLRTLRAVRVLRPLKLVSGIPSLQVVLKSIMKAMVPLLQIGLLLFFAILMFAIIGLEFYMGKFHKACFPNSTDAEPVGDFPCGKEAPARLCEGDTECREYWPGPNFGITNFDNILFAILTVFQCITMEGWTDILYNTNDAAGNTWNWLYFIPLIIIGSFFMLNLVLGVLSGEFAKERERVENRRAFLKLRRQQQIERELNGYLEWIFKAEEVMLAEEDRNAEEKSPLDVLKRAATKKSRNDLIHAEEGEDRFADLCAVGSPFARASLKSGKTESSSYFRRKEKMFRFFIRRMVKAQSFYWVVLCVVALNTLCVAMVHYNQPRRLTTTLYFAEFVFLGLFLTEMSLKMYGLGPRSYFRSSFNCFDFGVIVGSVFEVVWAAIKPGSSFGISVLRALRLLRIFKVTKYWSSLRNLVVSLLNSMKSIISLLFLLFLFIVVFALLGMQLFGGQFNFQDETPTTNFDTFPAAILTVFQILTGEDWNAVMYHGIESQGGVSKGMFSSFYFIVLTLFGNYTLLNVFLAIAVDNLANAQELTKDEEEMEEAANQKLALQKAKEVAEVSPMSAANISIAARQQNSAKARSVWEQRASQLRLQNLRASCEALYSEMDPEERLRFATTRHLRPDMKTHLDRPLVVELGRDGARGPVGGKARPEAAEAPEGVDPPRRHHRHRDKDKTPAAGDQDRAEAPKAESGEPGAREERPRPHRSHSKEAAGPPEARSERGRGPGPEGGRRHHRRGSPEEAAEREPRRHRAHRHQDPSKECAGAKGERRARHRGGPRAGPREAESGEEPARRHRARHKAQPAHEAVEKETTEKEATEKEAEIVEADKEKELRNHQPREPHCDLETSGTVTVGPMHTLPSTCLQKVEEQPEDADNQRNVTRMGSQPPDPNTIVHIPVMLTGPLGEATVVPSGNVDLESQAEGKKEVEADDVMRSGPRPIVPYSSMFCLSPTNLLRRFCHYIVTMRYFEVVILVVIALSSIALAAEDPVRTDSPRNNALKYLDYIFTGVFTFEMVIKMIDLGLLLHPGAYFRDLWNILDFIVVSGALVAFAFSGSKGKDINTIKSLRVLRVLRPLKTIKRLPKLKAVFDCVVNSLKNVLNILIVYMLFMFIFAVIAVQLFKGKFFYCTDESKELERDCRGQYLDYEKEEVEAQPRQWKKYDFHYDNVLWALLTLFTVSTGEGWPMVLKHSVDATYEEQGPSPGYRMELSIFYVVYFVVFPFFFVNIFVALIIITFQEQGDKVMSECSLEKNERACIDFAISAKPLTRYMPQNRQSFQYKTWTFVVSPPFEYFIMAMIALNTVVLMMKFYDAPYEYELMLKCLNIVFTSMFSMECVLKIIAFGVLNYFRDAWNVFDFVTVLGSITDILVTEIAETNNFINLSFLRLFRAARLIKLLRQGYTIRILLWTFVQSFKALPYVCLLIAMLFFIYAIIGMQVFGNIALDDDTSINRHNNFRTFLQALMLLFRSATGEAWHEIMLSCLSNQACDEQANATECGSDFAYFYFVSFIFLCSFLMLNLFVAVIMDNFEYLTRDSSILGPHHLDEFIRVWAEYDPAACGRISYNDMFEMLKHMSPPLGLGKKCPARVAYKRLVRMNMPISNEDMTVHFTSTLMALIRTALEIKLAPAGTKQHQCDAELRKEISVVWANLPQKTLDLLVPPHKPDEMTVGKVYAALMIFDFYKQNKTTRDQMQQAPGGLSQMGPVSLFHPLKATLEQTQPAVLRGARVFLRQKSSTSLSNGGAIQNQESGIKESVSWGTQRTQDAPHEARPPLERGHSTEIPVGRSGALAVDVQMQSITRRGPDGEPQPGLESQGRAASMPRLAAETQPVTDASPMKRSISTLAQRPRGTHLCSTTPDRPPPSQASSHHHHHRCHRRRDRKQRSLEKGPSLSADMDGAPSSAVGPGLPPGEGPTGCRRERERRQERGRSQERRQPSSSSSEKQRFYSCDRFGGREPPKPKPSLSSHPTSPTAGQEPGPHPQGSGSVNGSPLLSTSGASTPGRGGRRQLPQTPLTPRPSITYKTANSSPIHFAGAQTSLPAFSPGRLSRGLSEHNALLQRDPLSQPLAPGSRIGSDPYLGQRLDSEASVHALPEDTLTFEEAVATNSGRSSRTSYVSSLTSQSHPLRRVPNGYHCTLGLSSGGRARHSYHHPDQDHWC
T2 sequence (Q02410 whole entry): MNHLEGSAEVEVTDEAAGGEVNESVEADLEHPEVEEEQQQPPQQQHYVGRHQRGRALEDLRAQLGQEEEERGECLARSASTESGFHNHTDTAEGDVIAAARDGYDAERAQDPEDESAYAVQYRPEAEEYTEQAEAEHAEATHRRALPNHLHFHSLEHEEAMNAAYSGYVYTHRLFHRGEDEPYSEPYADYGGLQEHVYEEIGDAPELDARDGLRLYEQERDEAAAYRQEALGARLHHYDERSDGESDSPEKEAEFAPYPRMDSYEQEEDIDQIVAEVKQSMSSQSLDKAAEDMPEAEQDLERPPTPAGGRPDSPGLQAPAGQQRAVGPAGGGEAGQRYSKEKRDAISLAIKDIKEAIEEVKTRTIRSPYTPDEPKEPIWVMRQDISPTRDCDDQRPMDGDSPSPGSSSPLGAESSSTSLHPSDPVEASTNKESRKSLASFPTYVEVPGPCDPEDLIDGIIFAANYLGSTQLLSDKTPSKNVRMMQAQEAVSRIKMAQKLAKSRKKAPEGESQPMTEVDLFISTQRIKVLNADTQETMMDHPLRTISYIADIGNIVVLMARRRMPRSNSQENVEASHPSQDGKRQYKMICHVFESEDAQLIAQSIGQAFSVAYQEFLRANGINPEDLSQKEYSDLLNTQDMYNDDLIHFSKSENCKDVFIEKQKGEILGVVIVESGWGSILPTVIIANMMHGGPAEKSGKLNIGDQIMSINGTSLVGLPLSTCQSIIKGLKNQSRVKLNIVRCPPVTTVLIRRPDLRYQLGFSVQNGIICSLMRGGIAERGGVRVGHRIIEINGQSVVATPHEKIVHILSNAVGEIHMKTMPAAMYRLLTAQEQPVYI
Chain of Ubiquitin carboxyl-terminal hydrolase BAP1 (Q92560 whole entry): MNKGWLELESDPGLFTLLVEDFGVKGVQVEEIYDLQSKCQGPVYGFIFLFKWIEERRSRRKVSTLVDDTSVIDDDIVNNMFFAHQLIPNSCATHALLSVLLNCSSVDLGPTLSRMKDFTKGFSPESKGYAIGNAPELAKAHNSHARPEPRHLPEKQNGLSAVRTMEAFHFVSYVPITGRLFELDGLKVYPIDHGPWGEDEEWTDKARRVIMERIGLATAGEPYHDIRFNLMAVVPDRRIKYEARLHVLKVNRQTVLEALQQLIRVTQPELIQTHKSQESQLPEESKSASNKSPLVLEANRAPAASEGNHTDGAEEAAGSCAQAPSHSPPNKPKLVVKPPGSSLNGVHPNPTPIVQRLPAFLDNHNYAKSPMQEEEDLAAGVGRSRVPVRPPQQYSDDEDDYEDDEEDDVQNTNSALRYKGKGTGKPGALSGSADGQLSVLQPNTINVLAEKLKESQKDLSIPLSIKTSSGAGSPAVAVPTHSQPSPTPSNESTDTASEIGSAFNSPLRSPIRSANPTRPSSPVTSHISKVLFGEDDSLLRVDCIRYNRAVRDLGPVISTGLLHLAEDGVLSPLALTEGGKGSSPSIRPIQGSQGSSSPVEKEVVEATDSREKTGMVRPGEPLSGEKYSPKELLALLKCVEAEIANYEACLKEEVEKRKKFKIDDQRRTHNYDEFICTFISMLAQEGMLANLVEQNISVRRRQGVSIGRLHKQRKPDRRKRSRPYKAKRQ
Chain of Bifunctional protein GlmU (P9WMN3 whole entry): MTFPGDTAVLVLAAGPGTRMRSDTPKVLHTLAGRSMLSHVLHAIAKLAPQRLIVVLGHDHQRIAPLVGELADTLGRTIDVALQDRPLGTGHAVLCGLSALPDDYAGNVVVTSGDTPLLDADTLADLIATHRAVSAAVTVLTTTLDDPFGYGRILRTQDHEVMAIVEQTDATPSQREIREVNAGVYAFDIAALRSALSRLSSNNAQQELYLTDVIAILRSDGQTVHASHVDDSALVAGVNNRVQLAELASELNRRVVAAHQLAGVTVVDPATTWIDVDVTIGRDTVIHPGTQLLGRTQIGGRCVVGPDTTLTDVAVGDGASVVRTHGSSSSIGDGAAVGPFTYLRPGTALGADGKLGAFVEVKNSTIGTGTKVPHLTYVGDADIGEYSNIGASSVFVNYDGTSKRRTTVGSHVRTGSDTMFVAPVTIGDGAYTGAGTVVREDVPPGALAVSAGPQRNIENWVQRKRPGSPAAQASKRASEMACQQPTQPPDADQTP
Chain of Luciferin 4-monooxygenase (P08659 whole entry): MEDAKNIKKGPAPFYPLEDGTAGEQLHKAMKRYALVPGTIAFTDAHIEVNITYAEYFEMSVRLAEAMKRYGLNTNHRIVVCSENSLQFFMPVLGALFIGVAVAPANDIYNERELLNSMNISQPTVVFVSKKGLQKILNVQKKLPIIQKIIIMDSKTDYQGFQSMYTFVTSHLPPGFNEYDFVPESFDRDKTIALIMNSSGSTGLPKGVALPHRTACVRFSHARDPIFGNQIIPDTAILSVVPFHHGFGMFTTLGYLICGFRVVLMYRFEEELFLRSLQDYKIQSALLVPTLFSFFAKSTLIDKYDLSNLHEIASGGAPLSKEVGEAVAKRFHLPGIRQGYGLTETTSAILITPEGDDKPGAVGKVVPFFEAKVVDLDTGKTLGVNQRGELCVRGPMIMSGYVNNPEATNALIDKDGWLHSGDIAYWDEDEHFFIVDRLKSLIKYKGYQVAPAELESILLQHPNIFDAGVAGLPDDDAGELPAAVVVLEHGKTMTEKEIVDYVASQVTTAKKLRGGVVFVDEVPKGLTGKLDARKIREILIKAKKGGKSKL

`Nc1nc(Nc2cccc3ccccc23)nc(C2CCCC2=O)n1` (stereo unspecified): the IC50 in [1] was > 100000 nM (not active).
As to `CC(C)(C)c1nnc(NS(=O)(=O)c2ccccc2)s1` [GLYBUZOLE], the IC50 was 13100 nM (inactive) in [2] and > 33300 nM (inactive) in “cells”.
Turning to `Cc1ccccc1-c1ccc(CN(C)C[C@@H]2Oc3cc(C#C[C@@H](C)O)ccc3S(=O)(=O)N([C@@H](C)CO)C[C@@H]2C)cc1`, the AC50 in experiment [3] is 768 nM (active); in [4], 34600 nM (active); in experiment [5] it was 1650 nM (active); in [6], 2000 nM (active).
Consider `COc1ccc(C2CC(=O)N3CN(c4ccc(C)c(Cl)c4)CSC3=C2C#N)cc1OC` (stereo unspecified), for which the IC50 in [7] was > 50000 nM (not active); in [8], > 56800 nM (not active); in experiment [9], > 100000 nM (active); in experiment [12] it was > 50000 nM (inactive). Also, the EC50 in experiment [10] and in [11] was > 112000 nM (not active) in each case.
With `COc1ccccc1NC(=O)Nc1ccc2c(c1)OC[C@@H](C)N(Cc1ccccc1Cl)C[C@@H](C)[C@H](OC)CN(C)C2=O`, the AC50 was 874 nM (active) in experiment [13]; 30.5 nM (active) in experiment [14]; < 300 nM (active) in [15]; 16 nM (active) in experiment [16]; 181 nM (active) in experiment [17]; 220 nM (active) in experiment [18].
Regarding `c1ccc2ccccc2c1`, the IC50 in experiment [19] was > 40000 nM (inactive); in [20], 20800 nM (inactive).
As for `COCc1c(C(C)C)nc(C(C)C)c(/C=C/[C@@H](O)C[C@@H](O)CC(=O)O)c1-c1ccc(F)cc1` [CERIVASTATIN SODIUM], the EC50 in the experiment with BJ [21] was 339 nM (inconclusive); in the experiment on BJ [22] it was 347 nM (inconclusive); in the experiment on BJ [23] it was 356 nM (inconclusive); in experiment [24], 338 nM (inconclusive); in the experiment with BJ [25], < 104 nM (active). Further, the IC50 in [26] is > 10000 nM (inactive); in experiment [27] it was 143 nM (active); in [28] it was 1010 nM (active); in [29], 240 nM (active); in experiment [30], 1870 nM (active); in experiment [31], 1920 nM (active). Also, the IC50 in [32] was > 10000 nM (inactive); in [33] it was 1210 nM (active); in [34], 2510 nM (active); in experiment [35] it was 52.9 nM (active).
With `CCOCCCNc1nc(S)nc2cc(OC)c(OC)cc12`, the EC50 in experiment [36] is > 50000 nM (not active). For the same compound, in [37], the IC50 is 83000 nM (active).
On to `O=S1(=O)c2ccccc2N=NN1Cc1ccc(Cl)c(Cl)c1`, for which, in [38], the IC50 was 38700 nM (active).
Take `Cc1ccc(-c2cc(NCCCN3CCCCC3)c3ccccc3n2)cc1`: the IC50 was 1340 nM (active) in experiment [39] and 2990 nM (active) in experiment [40].
